Twelve compounds from patent publication US20230027075A1, “SULFONAMIDE COMPOUNDS TARGETING CD73 AND ADENOSINE RECEPTORS” (Aurigene Discovery Technologies Limited, priority 2019, published 2023) can be followed below.

Assay [1] concerns the target T1, human-CD73 (Trp27-Lys547, His-tag) (Homo sapiens, UniProt P21589).
T1 construct: human-CD73 (Trp27-Lys547, His-tag); His-tag
T1 sequence (P21589 27-547): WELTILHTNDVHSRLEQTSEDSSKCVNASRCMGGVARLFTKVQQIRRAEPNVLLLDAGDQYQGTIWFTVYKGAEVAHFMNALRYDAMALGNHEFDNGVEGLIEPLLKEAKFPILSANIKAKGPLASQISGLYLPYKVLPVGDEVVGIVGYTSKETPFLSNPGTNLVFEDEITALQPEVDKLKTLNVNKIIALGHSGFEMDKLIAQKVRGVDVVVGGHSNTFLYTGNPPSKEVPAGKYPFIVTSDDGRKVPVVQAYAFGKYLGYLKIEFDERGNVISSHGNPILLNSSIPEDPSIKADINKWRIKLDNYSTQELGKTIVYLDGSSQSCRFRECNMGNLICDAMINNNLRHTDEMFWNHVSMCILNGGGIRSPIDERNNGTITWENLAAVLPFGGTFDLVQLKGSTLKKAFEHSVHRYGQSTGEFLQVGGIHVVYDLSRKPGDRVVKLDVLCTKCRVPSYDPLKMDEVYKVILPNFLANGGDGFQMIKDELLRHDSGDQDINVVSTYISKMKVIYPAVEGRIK
As to the kind of experiment: CD73 biochemical assay (colorimetric, Malachite Green phosphate detection). Particulars: 2 nM CD73, 50 μM AMP; for inhibition at 20 µM: 20 μM compound, read-out: % inhibition at 20 μM (Percent inhibition data in CD73); for IC50: four-parameter curve fit, read-out: Potency (IC50 values) of selected compounds in CD73, group. On the procedure:
A colorimetric-based method was used for assaying compounds of the invention for CD73 enzyme inhibitory activity. Human CD73 catalyzes the conversion of AMP to adenosine with the release of orthophosphate. A Malachite Green Phosphate Detection kit is used to measure the formation of orthophosphate product. […] A compound of the present invention and enzyme are incubated for 30 minutes at room temperature. Next, 20 μL of AMP in assay buffer is added to the plate. The final concentration of CD73 and AMP are 2 nM and 50 μM respectively. Following 30 minutes reaction at room temperature, 20 μL of Malachite reagent is added to all the reaction wells. The formation of green complex formed between Malachite Green, molybdate and free orthophosphate is measured on a plate reader (620 nm).

The target in the next assay is T2, A2aR (Homo sapiens, UniProt P29274).
T2 construct: expressed in transfected cells
As to the kind of experiment: A2aR biochemical assay (TR-FRET binding, Tag-lite A2aR labelled cells, fluorescent antagonist). Particulars: 10 nM fluorescent A2aR antagonist; for inhibition at 20 µM: 20 μM compound, vs DMSO control, read-out: % inhibition at 20 μM (Percent inhibition data in A2aR); for IC50: four-parameter curve fit, read-out: Potency (IC50 values) of selected compounds in A2aR, group. On the procedure: The compounds of present invention were assayed for A2aR enzyme binding activity in a TR-FRET based method. Typically, 10 μL of A2aR labelled cells in assay buffer (Tag-lite, 1×) is added to a 384-well plate containing 5 μL of a compound of present invention in final 1% DMSO, serially diluted in 1:5 in a 5-6 point titration. The aforesaid compound and cells are incubated for 30 minutes at room temperature. Next, 5 μL of A2aR antagonist (fluorescent ligand) in assay buffer is added to the plate. The final concentration of A2aR antagonist is 10 nM. Following 30 minutes reaction at room temperature, the plate was read on a plate reader (Ex: 340 nm Em: 615 nm and 665 nm) to measure the binding of test compound to A2aR cells. The results are interpreted as percentage inhibition as presented in Table-2A of binding by the test compound with respect to the DMSO control.
(In TR-FRET formats the signal depends on donor and acceptor labels being close together.)

T2 sequence (P29274 whole entry): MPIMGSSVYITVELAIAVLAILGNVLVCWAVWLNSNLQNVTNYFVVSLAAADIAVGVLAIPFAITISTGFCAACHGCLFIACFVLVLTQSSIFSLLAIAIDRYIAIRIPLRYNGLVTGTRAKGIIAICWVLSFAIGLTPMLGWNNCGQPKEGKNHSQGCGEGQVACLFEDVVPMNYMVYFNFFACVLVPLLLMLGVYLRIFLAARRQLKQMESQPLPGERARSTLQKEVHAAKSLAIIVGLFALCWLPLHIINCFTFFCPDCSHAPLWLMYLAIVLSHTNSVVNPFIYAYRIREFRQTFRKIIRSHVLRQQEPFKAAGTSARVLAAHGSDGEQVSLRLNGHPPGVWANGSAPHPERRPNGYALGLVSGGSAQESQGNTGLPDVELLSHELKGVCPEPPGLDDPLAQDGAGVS

For `NC(=O)c1cc(S(=O)(=O)Nc2ccc(CCCNc3cc(N)n4nc(-c5ccco5)nc4n3)cc2)cc(Cl)c1O` [Example A20, 5-(N-(4-(3-((7-amino-2-(furan-2-yl)-[1,2,4]triazolo[1,5-a]pyrimidin-5-yl)amino)propyl)phenyl)sulfamoyl)-3-chloro-2-hydroxybenzamide], in assay [1], the inhibition at 20 µM stood at 92% and the IC50 is < 100 nM. Moreover, on A2aR, the inhibition at 20 µM amounted to 80% and the IC50 lay in the range of 25.1 to 50 nM.

Turning to `NC(=O)c1cc(S(=O)(=O)Nc2ccc(CNc3nc(N)n4nc(-c5ccco5)nc4n3)cc2)cc(Cl)c1O` [Example A2, 5-(N-(4-(((7-amino-2-(furan-2-yl)-[1,2,4]triazolo[1,5-a][1,3,5]triazin-5-yl)amino)methyl)phenyl)sulfamoyl)-3-chloro-2-hydroxybenzamide], the figures for the inhibition at 20 µM (in assay [1]; at A2aR) were 97% and 80%, respectively. The results for the IC50 (in assay [1]; on A2aR) were 110 to 1000 nM and > 50 nM, respectively.

Consider `NC(=O)c1cc(S(=O)(=O)Nc2ccc(CCCNc3nc(N)n4nc(-c5ccco5)nc4n3)c(F)c2)cc(Cl)c1O` [Example A14, 5-(N-(4-(3-((7-amino-2-(furan-2-yl)-[1,2,4]triazolo[1,5-a][1,3,5]triazin-5-yl)amino)propyl)-3-fluorophenyl)sulfamoyl)-3-chloro-2-hydroxybenzamide], for which, in assay [1], the inhibition at 20 µM was 94% and the IC50 is < 100 nM. Further, at A2aR, the inhibition at 20 µM amounted to 82%.

With `NC(=O)c1cc(S(=O)(=O)Nc2cccc3c2cnn3CCNc2nc(N)n3nc(-c4ccco4)nc3n2)cc(Cl)c1O` [Example D2, 5-(N-(1-(2-((7-amino-2-(furan-2-yl)-[1,2,4]triazolo[1,5-a][1,3,5]triazin-5-yl)amino)ethyl)-1H-indazol-4-yl)sulfamoyl)-3-chloro-2-hydroxybenzamide], the inhibition at 20 µM came out at 62% in assay [1] and 79% on A2aR. The IC50 in assay [1] was > 1000 nM.

Turning to `NC(=O)c1cc(S(=O)(=O)Nc2ccc(CCCNc3cc(N)n4nc(-c5ccco5)cc4n3)cc2)cc(Cl)c1O` [Example A24], in assay [1], the inhibition at 20 µM came out at 92% and the IC50 is < 100 nM. On A2aR, the inhibition at 20 µM was 79% and the IC50 was > 50 nM.

Consider `NC(=O)c1cc(S(=O)(=O)Nc2ccc3ccn(CCNc4nc(N)n5nc(-c6ccco6)nc5n4)c3c2)cc(Cl)c1O` [Example D1, 5-(N-(1-(2-((7-amino-2-(furan-2-yl)-[1,2,4]triazolo[1,5-a][1,3,5]triazin-5-yl)amino)ethyl)-1H-indol-6-yl)sulfamoyl)-3-chloro-2-hydroxybenzamide], for which, in assay [1], the inhibition at 20 µM came out at 49% and the IC50 lay within 110 to 1000 nM. For the same compound, the inhibition at 20 µM at A2aR came to 85%.

Turning to `NC(=O)c1cc(S(=O)(=O)Nc2ccc(CCCNc3cc(N)n4nc(-c5ccco5)nc4n3)c(F)c2)cc(Cl)c1O` [Example A22, 5-(N-(4-(3-((7-amino-2-(furan-2-yl)-[1,2,4]triazolo[1,5-a]pyrimidin-5-yl)amino)propyl)-3-fluorophenyl)sulfamoyl)-3-chloro-2-hydroxybenzamide], in assay [1], the inhibition at 20 µM turned out to be 95% and the IC50 was < 100 nM. Moreover, the inhibition at 20 µM at A2aR was found to be 81%.

Consider `CN(CCCc1ccc(NS(=O)(=O)c2cc(Cl)c(O)c(C(N)=O)c2)cc1)c1nc(N)n2nc(-c3ccco3)nc2n1` [Example A17, 5-(N-(4-(3-((7-amino-2-(furan-2-yl)-[1,2,4]triazolo[1,5-a][1,3,5]triazin-5-yl)(methyl)amino)propyl)phenyl)sulfamoyl)-3-chloro-2-hydroxybenzamide], for which, in assay [1], the inhibition at 20 µM was 95% and the IC50 is 110 to 1000 nM. Besides, the inhibition at 20 µM on A2aR amounted to 82%.

In the case of `Nc1nc(NCCc2ccc(NS(=O)(=O)c3cc(F)c(O)c(Cl)c3)cc2)nc2nc(-c3ccco3)nn12` [Example A4, N-(4-(2-((7-amino-2-(furan-2-yl)-[1,2,4]triazolo[1,5-a][1,3,5]triazin-5-yl)amino)ethyl)phenyl)-3-chloro-5-fluoro-4-hydroxybenzenesulfonamide], the inhibition at 20 µM stood at 27% in assay [1] and 81% at A2aR.

As to `Nc1nc(NCCc2ccc(NS(=O)(=O)c3cc(Cl)c4[nH]ccc(=O)c4c3)cc2)nc2nc(-c3ccco3)nn12` [Example B3, N-(4-(2-((7-amino-2-(furan-2-yl)-[1,2,4]triazolo[1,5-a][1,3,5]triazin-5-yl)amino)ethyl)phenyl)-8-chloro-4-oxo-1,4-dihydroquinoline-6-sulfonamide], the inhibition at 20 µM in assay [1] was found to be 9%; at A2aR, 88%.

Regarding `COc1c(Cl)cc(S(=O)(=O)Nc2ccc(CCCNc3nc(N)n4nc(-c5ccco5)nc4n3)cc2)cc1C(N)=O` [Example A16, 5-(N-(4-(3-((7-amino-2-(furan-2-yl)-[1,2,4]triazolo[1,5-a][1,3,5]triazin-5-yl)amino)propyl)phenyl)sulfamoyl)-3-chloro-2-methoxybenzamide], the inhibition at 20 µM in assay [1] worked out at 63%; on A2aR it was 83%.

`Nc1nc(NCCc2ccc(NS(=O)(=O)c3ccc(O)c(C(F)(F)F)c3)cc2)nc2nc(-c3ccco3)nn12` [Example A10, N-(4-(2-((7-amino-2-(furan-2-yl)-[1,2,4]triazolo[1,5-a][1,3,5]triazin-5-yl)amino)ethyl)phenyl)-4-hydroxy-3-(trifluoromethyl)benzenesulfonamide]: the results for the inhibition at 20 µM (in assay [1]; on A2aR) were 17% and 88%, respectively.

In general, inhibition refers to how much of the control response was suppressed. The term IC50 denotes the concentration that gives 50% inhibition.
